Measured values as given in US20080200724A1, “Process and Compound” (NPIL Pharmaceuticals (UK) Ltd, priority 2005, published 2008).

Experiments:
[1] = solvent mixtures comprising methanol and one or more of toluene or ethyl acetate, typically
Description: The upper and lower concentration values are therefore dependent on the solubility characteristics of the material and the solvent mixture of choice. […] Therefore, for a crystallisation regime starting at 60° C. and ending at 0° C., a saturated or partially saturated solution in methanol and toluene, ethyl acetate admixtures, the concentration of BOC-protected 2R,3S—N-isobutyl-N-(2-hydroxy-3-amino-4-phenylbutyl)-p-nitrobenzene-sulfonylamide is in the range from 0.3 to 24% w/w.

[2] = in propan-1-ol at 60° C.
Description: In addition to methanol, other lower aliphatic alcohols were investigated. The solubility of BOC-protected 2R,3S—N-isobutyl-N-(2-hydroxy-3-amino-4-phenylbutyl)-p-nitrobenzene-sulfonylamide in propan-1-ol, propan-2-ol or butan-1-ol is too low to offer an economically viable process. […] The solubility of BOC-protected 2R,3S—N-isobutyl-N-(2-hydroxy-3-amino-4-phenylbutyl)-p-nitrobenzene-sulfonylamide in ethanol is better than that in C3 and C4-alcohols, but is still lower than the solubility in methanol. […] Similarly, acetone and 2-pentanone yield small acicular crystals.

In the case of `CC(C)CN(C[C@@H](O)[C@H](Cc1ccccc1)NC(=O)OC(C)(C)C)S(=O)(=O)c1ccc([N+](=O)[O-])cc1` [BOC-protected 2R,3S—N-isobutyl-N-(2-hydroxy-3-amino-4-phenylbutyl)-p-nitrobenzene-sulfonylamide], the maximum solubility achievable ([1]; 60° C.) is reported as 24 % w/w, the lower solubility value ([1]; end-point temperature of 0° C.) is reported as 0.3 % w/w and the solubility [2] is reported as “less than 3 % w/w”.
